Laboratory results reported in patent publication US20110281747A1, “BIOMARKERS FOR PREDICTING RAPID RESPONSE TO HCV TREATMENT” (ROCHE MOLECULAR SYSTEMS, INC., priority 2009, published 2011).

Columns and labels:
[1] = Phase II clinical trial of RO4588161: premature withdrawal for safety reasons; assay type: in vivo, human
Excerpt: This was a phase 2A, multi-center, randomized, double-blinded (RO4588161 and ribavirin were double-blinded and Pegasys was open labeled), active-controlled, with a parallel-group study which is ongoing. A screening period (time from the first screening assessment to the first administration of test drug) of 35 days preceded the treatment portion of the trial (FIG. 1). The HCV genotype and HCV RNA titer of each patient was confirmed during the screening period and only treatment-naïve patients with HCV genotype-1 and HCV RNA titer ≧50,000 IU/mL were eligible for enrollment.
One hundred and seven male and female patients between 18 and 66 years of age were enrolled into the study. Patients were randomized into four treatment groups: • Group A/Dual 1500 [RO4588161 1500 mg oral, twice daily+Pegasys 180 μg subcutaneous, once weekly] for 4 weeks—21 patients, • Group B/Dual 3000 [R04588161 3000 mg oral, twice daily+Pegasys 180 μg subcutaneous, once weekly] for 4 weeks—34 patients, • Group C/Triple 1500 [R04588161 1500 mg oral, twice daily+Pegasys 180 μg subcutaneous, once weekly+ribavirin 1000 mg (<75 kg) or 1200 mg (≧75 kg) oral daily] for 4 weeks—31 patients or • Group D/standard of care (SOC) [Pegasys 180 μg subcutaneous, once weekly+ribavirin 1000 mg (<75 kg) or 1200 mg (≧75 kg) oral daily] for 4 weeks—21 patients […]

HCV = conditions: monotherapy; cited from earlier work
[2] = in vivo; cited from earlier work

Row | SMILES | patients who prematurely withdrew for safety reasons from treatment ([1]; both, human, in vivo, 4 weeks) [patients] | effect on serum levels of HCV-RNA (HCV) | patients whose serum amino transferase levels are reduced to normal (HCV) [%] | patients with hemolytic anemia requiring dose reduction or discontinuation of ribavirin therapy [2] [%] | patients who prematurely withdrew for safety reasons from treatment ([1]; among the 104 evaluable patients) [patients]
1 | NC(=O)c1ncn([C@@H]2O[C@H](CO)[C@@H](O)[C@H]2O)n1 [ribavirin, 1-((2R,3R,4S,5R)-3,4-Dihydroxy-5-hydroxymethyl-tetrahydro-furan-2-yl)-1H-[1,2,4]triazole-3-carboxylic acid amide] | 5 | does not lower serum levels of HCV-RNA | 40 | 10 to 20 | –
2 | CC(C)C(=O)OC[C@@]1(N=[N+]=[N-])O[C@@H](n2ccc(N)nc2=O)[C@H](OC(=O)C(C)C)[C@@H]1OC(=O)C(C)C [RO4588161, Isobutyric acid (2R,3S,4R,5R)-5-(4-amino-2-oxo-2H-pyrimidin-1-yl)-2-azido-3,4-bis-isobutyryloxy-tetrahydro-furan-2-ylmethyl ester] | – | – | – | – | 43
